How the values were obtained:
RPE65 = RPE65 (Bos taurus, UniProt Q28175); test: In vitro RPE65 activity assay; settings: for IC50: IC50 toward RPE65, bovine RPE microsomes
[1] = tested on: visual chromophore regeneration in BALB/cJ mice; test: Extent and duration of effects on visual chromophore recovery after photobleach; settings: 10 mg/kg single IP, photobleach 30 min after dose, 2 h dark recovery
Abca4–/–Rdh8–/– mice [2] = test: Photic retinal damage in Abca4–/–Rdh8–/– mice: scotopic; format: in vivo, mouse; settings: 1 week after light damage
Abca4–/–Rdh8–/– mice [3] = test: Photic retinal damage in Abca4–/–Rdh8–/– mice: photopic ERG; format: in vivo, mouse; settings: IP and oral administration, 1 week after light damage
Abca4–/–Rdh8–/– mice [4] = test: Photic retinal damage in Abca4–/–Rdh8–/– mice; format: in vivo, mouse
BALBc/J mice = test: In vivo scotopic ERG 2 h after photobleach, oral gavage dosing; design: species or system mouse; settings: 10 mg/kg oral gavage, photobleach after 30 min, 2 h in the dark
porcine liver esterase = test: In vitro esterase susceptibility assay; settings: for initial rate of VCM loss: 37 °C, followed for 60 min
[5] = Shelf life of ester-based VCMs; format: physicochemical; settings: Figure S1
BALB/cJ mice [6] = test: Light-induced retinal damage in BALB/cJ mice: SLO and OCT imaging; format: in vivo, mouse
BALB/cJ mice [7] = test: Light-induced retinal damage in BALB/cJ mice: histology, ONL nuclei counts; settings: 10 mg/kg single IP, 15,000 lx for 8 h, p < 0.0001
[8] = 10 mg/kg single IP, 15,000 lx for 8 h, assessed after 7 days

Chain of RPE65 (Q28175 whole entry): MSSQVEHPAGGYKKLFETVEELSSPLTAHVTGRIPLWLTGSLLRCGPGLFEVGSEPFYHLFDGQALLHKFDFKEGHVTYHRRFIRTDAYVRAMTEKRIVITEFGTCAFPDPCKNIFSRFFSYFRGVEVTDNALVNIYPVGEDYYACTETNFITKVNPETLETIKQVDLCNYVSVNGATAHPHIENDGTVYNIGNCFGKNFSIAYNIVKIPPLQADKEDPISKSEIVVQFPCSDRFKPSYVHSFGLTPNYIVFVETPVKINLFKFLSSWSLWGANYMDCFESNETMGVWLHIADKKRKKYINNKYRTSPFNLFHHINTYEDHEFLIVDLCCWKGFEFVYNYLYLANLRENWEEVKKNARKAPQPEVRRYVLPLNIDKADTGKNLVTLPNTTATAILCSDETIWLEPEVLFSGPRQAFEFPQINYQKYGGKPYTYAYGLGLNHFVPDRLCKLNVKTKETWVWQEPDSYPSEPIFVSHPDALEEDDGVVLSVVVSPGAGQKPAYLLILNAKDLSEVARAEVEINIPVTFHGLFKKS

RPE65 inhibition in vitro (RPE65; bovine RPE microsomes)	IC50 (RPE65) [nM]	slower initial rate of hydrolysis compared with compound 5 (porcine liver esterase) [fold]	initial rate of VCM loss (porcine liver esterase) [% compound/min]	SMILES	ocular retinoid pattern (atREs and 11cRAL) after photobleach [1]	rod ERG responses, IP (Abca4–/–Rdh8–/– mice [2]; IP administration)	rod ERG b-wave amplitudes, oral (Abca4–/–Rdh8–/– mice [2]; oral 10, 20, 50 mg/kg)	S-cone and M-cone b-wave amplitudes (Abca4–/–Rdh8–/– mice [3])	OCT: ONL, oral (Abca4–/–Rdh8–/– mice [4]; oral 10, 20, 50 mg/kg, 10,000 lx for 30 min, assessed after 1 week)	SLO autofluorescent signals, oral (Abca4–/–Rdh8–/– mice [4]; oral 10, 20 and 50 mg/kg, 10,000 lx for 30 min, assessed after 1 week)	oral dose from which the effect on ONL thickness was significant (Abca4–/–Rdh8–/– mice [4]; oral administration, OCT ONL thickness) [mg/kg]	OCT: ONL, IP (Abca4–/–Rdh8–/– mice [4]; single IP dose, 10,000 lx for 30 min, assessed after 1 week)	scotopic ERG a-wave after oral dosing (BALBc/J mice)	stability to nonenzymatic aminolysis [5]	OCT: ONL thickness (BALB/cJ mice [6]; [8])	SLO retinal autofluorescent puncta (BALB/cJ mice [6]; [8])	efficacy of a single systemic administration in the prevention of photic retinal damage (BALB/cJ mice [6]; 10 mg/kg single IP, albino BALB/cJ mice)	Spider plot of ONL thickness from H&E sections, ANOVA (BALB/cJ mice [7])	scotopic ERG b-wave after oral dosing (BALBc/J mice)
did not significantly inhibit RPE65	–	–	–	NCCC(O)c1cccc(O)c1 (stereo not shown) [Compound 4, 3-(3-Amino-1-hydroxypropyl)phenol]	led to the same pattern as vehicle treatment	–	–	–	–	–	–	–	–	–	–	–	–	–	–
–	102 ± 12	~13	0.440	CCCC(CCC)C(=O)Oc1cccc(C(O)CCN)c1.O=CO (stereo not shown) [Compound 7, 3-(3-Amino-1-hydroxypropyl)phenyl 2-propylpentanoate formate]	reproduced the retinoid pattern observed after emixustat treatment	had a significant effect in maintaining rod function	dose-dependent preservation of rod ERG b-wave amplitudes	A similar trend was observed	dose-dependent preservation of the ONL layer	did not afford complete protection	≥ 20	the ONL remained intact	suppressed significantly the scotopic ERG a-wave	–	–	–	–	–	–
–	164 ± 27	–	5.611	NCCC(O)c1cccc(OC(=O)C2CCCCC2)c1.O=CO (stereo not shown) [Compound 5, 3-(3-Amino-1-hydroxypropyl)phenyl cyclohexanecarboxylate formate]	led to the same pattern as vehicle treatment	–	–	–	–	–	–	–	–	substantially less stable compared to 6 and 7	–	–	–	–	–
–	69 ± 15	~4	1.512	CCC(CC)C(=O)Oc1cccc(C(O)CCN)c1.O=CO (stereo not shown) [Compound 6, 3-(3-Amino-1-hydroxypropyl)phenyl 2-ethylbutanoate formate]	reproduced the retinoid pattern observed after emixustat treatment	–	–	–	–	–	–	–	suppressed significantly the scotopic ERG a-wave	–	preserved the thickness of the ONL	rare autofluorescent puncta	equal to that of emixustat	significant effect	only 7 suppressed also the b-wave amplitude

Reference: paper PMC12409883 (Journal of Medicinal Chemistry, 2025)
